The text below walks through data of publication PMC12385147, “Discovery of Novel 2-Substituted Aniline Pyrimidine Based Derivatives as Potent Mer/c-Met Dual Inhibitors with Improvement Bioavailability” (Biomolecules, 2025).

One data set concerns the target hERG potassium channel (Homo sapiens, UniProt Q12809). In words: hERG potassium channel QPatch automated patch clamp in CHO cells.
The test system of a further data set is PC-3 prostate cancer. Put plainly: Antiproliferation CCK-8 assay, PC-3. In kind it is cell-based. For orientation: Tetrazolium assays rely on reduction of a dye to a coloured formazan, in cell work by metabolically active cells.
A further data set deals with T1, Mer kinase (Homo sapiens, UniProt Q12866).
T1 construct: purchased Invitrogen (Shanghai, China)
T1 sequence (Q12866 21-999): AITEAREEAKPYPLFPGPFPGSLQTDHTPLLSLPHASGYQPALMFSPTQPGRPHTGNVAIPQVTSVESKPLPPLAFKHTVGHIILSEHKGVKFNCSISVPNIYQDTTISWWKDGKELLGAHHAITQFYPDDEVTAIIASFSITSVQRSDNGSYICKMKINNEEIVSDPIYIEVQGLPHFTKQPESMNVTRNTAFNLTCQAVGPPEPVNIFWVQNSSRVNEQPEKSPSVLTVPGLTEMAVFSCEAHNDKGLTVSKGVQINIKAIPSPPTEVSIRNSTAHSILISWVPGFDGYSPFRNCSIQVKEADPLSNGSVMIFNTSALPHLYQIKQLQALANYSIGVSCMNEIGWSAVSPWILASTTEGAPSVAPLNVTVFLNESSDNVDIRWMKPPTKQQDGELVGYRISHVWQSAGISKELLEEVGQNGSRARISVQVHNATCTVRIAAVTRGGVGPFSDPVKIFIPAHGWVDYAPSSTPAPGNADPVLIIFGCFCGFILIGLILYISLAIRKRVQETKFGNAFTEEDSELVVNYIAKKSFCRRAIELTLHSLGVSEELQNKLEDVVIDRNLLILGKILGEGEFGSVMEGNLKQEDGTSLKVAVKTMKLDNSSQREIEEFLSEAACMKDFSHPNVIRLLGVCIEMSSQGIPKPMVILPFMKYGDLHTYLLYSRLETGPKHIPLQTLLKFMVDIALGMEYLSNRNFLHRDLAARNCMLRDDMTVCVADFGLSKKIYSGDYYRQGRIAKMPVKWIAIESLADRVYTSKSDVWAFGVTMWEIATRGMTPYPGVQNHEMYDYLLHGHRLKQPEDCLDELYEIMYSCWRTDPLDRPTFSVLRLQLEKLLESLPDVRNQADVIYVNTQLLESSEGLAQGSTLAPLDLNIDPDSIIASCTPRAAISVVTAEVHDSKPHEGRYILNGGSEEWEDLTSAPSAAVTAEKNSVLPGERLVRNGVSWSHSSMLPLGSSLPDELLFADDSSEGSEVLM
Put plainly: Mer kinase inhibition assay (TK-Sub-Biotin / cryptate detection). In kind it is biochemical. The following applies: means from three independent experiments.

Data set [1] in a line: Plasma protein binding, equilibrium dialysis, human plasma. The class given is in vitro ADME. The note with it: for fraction unbound at 6 h, 1 μM: human, plasma. For orientation: In equilibrium dialysis free small molecules cross a membrane that holds back macromolecules.
Data set [2] in a line: Liver microsome stability assay. In kind it is in vitro ADME, human. (In general: Microsomes from liver hold many membrane-bound enzymes, among them those of drug oxidation.)
For the next data set, the target named is T2, c-Met kinase (Homo sapiens, UniProt P08581).
T2 construct: purchased Invitrogen (Shanghai, China)
T2 sequence (P08581 25-1390): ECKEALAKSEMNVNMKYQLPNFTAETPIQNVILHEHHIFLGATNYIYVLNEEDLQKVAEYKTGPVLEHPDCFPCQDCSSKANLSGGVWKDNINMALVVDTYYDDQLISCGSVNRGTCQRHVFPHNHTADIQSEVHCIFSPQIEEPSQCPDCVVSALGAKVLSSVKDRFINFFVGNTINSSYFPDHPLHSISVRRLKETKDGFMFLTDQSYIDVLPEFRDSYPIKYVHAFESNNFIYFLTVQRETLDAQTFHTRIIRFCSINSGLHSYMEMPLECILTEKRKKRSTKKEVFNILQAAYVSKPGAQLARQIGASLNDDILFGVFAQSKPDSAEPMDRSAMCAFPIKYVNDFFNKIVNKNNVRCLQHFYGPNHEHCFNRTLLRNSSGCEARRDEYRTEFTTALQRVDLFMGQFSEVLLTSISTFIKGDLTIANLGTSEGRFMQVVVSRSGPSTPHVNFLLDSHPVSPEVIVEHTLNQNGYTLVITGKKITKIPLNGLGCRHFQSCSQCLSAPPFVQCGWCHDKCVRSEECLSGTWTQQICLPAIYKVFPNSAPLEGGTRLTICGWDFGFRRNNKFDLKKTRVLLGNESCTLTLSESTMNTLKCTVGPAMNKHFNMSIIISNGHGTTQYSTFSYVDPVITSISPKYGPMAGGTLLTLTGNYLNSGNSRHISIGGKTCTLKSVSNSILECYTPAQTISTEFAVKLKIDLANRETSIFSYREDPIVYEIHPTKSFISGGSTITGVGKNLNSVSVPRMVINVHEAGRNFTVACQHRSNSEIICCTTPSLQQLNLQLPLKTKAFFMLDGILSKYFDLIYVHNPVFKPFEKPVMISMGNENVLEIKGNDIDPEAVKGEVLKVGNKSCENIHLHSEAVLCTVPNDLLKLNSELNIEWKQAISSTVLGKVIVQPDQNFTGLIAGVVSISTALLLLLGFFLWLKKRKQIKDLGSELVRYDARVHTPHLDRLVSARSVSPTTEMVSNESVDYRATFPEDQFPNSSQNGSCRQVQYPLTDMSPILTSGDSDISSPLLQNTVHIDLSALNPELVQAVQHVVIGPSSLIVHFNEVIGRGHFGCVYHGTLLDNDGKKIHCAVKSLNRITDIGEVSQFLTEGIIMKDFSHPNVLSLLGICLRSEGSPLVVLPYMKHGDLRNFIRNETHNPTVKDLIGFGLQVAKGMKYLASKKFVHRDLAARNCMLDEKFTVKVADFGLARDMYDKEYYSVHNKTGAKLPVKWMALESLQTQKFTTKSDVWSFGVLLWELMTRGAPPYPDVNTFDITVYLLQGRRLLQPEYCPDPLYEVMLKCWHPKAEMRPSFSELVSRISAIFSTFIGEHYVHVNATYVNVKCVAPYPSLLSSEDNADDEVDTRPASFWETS
In words: c-Met kinase inhibition assay (TK-Sub-Biotin / cryptate detection). In kind it is biochemical. The following applies: means from three independent experiments.

In a further data set the test system is HepG2. In words: Antiproliferation CCK-8 assay, HepG2. The class given is cell-based. The note with it: Homo sapiens, CCK-8, 72 h. How it is done: The HepG2, MDA-MB-231, and HCT116 cell lines were derived from our own laboratory (the laboratory of our collaborator, Dr. Xiaolei Zhou, at College of Food Science and Biology in Hebei University of Science and Technology). The antiproliferative activities were assessed using the CCK-8 assay. Cell viability was measured according to the manufacturer’s instructions for the Cell Counting Kit-8 (Meilunbio, Dalian, China). In this assay, 2.5 × 10^3 cells per well were seeded into 96-well plates.
After an initial 12 h incubation, cancer cells were exposed to varying concentrations of compound 17c for 72 h. Following CCK-8 solution addition and 2 h incubation, the absorbance at 450 nm was measured using a BioTek Synergy HTX microplate reader. Experiments included triplicate wells with three independent replicates. The IC50 values for compound 17c were derived from an analysis of the dose–response curves in GraphPad PRISM 9.5.

For data set [3], the system named is Mer kinase phosphorylation. Put plainly: Western blot, Mer phosphorylation in HCT116 cells. The note with it: 2.5 μM, 24 h, compared to the positive control. In kind it is cell-based, human. How it is done:
Western blot assay was performed according to established protocols. HCT colon cancer cells were exposed to the specified concentration of compound 17c for 24 h, after which whole cell lysates were prepared using RAPI cell lysis buffer (Beyotime Institute of Biotechnology, Shanghai, China). Primary antibodies, purchased from Beyotime Institute of Biotechnology, were diluted at a ratio of 1:2000. The protein bands on polyvinylidene fluoride membranes were visualized and analyzed using Glyco Band-Scan Software Version 4.50. The antibody details are as follows:
Name: Phospho-MER/TYRO3 (Tyr753/Tyr685) antibody, Species: Rabit, Sequence: synthesized peptide derived from human MER/TYRO3 around the Phosphorylation site of Tyr753/Tyr685, Dilution: 1:2000, RRID number: AB_2840500, Catalogue number: AF8443, Supplier: Affinity Biosciences (Beijing, China).

The subject of the next data set is HCT116 cells. Put plainly: Transwell migration assay of HCT116 cells. The class given is cell-based. The following applies: 24 h. How it is done:
Migration assays were conducted using Transwell® inserts (Costar, Cambridge, MA, USA) with an 8 μm pore size polycarbonate membrane. HCT116 cells (1.5 × 10^5) were seeded into the upper chamber with serum-free medium containing 0.2% BSA, while the lower chamber contained medium supplemented with 15% FBS. Compound 17c was applied at the specified concentrations to both sides of the membrane. After 24 h of incubation at 37 °C, the cells were fixed in methanol and stained with 0.1% crystal violet. Non-migrated cells on the upper surface of the membrane were removed using a cotton swab. Five random fields per well were imaged under brightfield microscopy, and the number of migrated cells was quantified using ImageJ software (1.53c). Each experiment was performed in triplicate.

Where two headings read alike, the source gives them in different places.

hERG potassium channel, sequence (Q12809 whole entry): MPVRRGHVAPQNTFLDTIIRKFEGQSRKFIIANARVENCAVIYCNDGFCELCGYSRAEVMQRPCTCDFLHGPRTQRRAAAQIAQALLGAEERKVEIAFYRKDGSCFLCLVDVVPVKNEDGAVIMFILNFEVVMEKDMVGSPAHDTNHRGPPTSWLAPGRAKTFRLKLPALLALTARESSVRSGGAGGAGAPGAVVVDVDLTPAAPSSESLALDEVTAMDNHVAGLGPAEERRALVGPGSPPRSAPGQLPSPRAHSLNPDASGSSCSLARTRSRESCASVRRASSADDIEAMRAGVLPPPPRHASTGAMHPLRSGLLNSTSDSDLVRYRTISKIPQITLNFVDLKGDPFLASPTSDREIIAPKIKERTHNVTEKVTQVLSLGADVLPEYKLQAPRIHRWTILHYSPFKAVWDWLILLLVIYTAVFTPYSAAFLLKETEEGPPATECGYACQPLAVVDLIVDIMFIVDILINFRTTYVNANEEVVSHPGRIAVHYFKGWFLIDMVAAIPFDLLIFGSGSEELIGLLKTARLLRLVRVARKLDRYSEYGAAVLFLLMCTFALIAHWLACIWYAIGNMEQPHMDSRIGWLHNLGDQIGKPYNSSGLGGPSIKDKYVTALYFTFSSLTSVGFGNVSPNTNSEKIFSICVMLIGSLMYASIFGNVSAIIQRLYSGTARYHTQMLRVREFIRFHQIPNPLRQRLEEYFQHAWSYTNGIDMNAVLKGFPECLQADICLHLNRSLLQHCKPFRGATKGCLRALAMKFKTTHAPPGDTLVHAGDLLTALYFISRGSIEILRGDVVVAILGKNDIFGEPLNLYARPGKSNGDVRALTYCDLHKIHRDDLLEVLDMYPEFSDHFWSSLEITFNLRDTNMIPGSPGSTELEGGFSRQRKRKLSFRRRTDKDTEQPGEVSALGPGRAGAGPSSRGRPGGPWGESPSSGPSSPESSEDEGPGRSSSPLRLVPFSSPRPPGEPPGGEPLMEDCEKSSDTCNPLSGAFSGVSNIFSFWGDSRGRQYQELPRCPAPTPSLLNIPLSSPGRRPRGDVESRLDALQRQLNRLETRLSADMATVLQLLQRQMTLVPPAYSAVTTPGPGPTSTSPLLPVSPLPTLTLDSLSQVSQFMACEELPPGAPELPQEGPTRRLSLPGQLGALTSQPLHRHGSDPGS

`Cc1c(C(=O)Nc2ccc(Oc3ccnc(Nc4cccc(OC5CCN(C)CC5)c4)n3)cc2)c(=O)n(-c2ccccc2)n1C` [compound 17c, 1,5-dimethyl-N-(4-((2-((3-((1-methylpiperidin-4-yl)oxy)phenyl)amino)pyrimidin-4-yl)oxy)phenyl)-3-oxo-2-phenyl-2,3-dihydro-1H-pyrazole-4-carboxamide]: the IC50 is over 40000 nM against hERG potassium channel; 3790 ± 1090 nM with PC-3 prostate cancer (Homo sapiens, PC-3, CCK-8, read-out: IC50 PC-3 cells); 6.4 ± 1.8 nM against Mer kinase; 26.1 ± 7.7 nM against c-Met kinase; 460 ± 60 nM in the data set on HepG2. In addition, in the data set with PC-3 prostate cancer (PC-3 cells), the “times more effective than cabozantinib” value was found to be 4.1 times. Further, the “Stability (%)” value in data set [1] (human plasma, 1 μM, 6 h at 37 °C) came out at 99.3%. Moreover, the fraction unbound at 6 h, 1 μM in data set [1] (human plasma, 1 μM, fraction, read-out: Mean Fu) was 0.0158; in data set [1] (human plasma, 1 μM, read-out: Mean Fb (PPB) (converted)), 0.016. This compound also gave a plasma protein-binding affinity in [1] (species not stated (abstract)) of over 95%. For the same compound, the “CL (intrinsic clearance)” value in data set [2] (human liver microsomes) turned out to be 23.6 µL/min/mg. The microsomal CLint in [2] (human, liver microsomes, pH 7.4, human liver microsomes, read-out: CL (intrinsic clearance)) is 26 µL/min/mg. In addition, the “inhibition of Mer kinase phosphorylation” value in data set [3] is listed as “significantly inhibited the phosphorylation”. Further, the “inhibition of HCT116 cell migration” value in the data set with HCT116 cells is “effectively inhibits the migration capacity”.

One may read the IC50 as the concentration that inhibits the measured activity by half.
